Tests used:
human body = settings: oral treatment of taeniasis, adults and children; cited from earlier work
Jurkat cell line = assay: Cell viability CCK-8 assay, Jurkat cell suspension; format: cell-based; settings: six concentrations 0.041 μM-10 μM; 24 h, 48 h and 72 h; OD at 450 nm
Description: Test cell line: Jurkat cell line (purchased from Nanjing Cobioer Co., Ltd.)
Experimental method: Cell viability CCK-8 assay
Experimental design: within a dose concentration range of 0.041 μM-10 μM, six concentrations were designed with three-fold increments, including 0.041 μM, 0.123 μM, 0.367 μM, 1.1 μM, 3.3 μM and 10 μM.
1. A Jurkat cell suspension was prepared and inoculated to the 96-well plate at an amount of 5×10^4/well.
2. The Jurkat cell suspension was directly added to different concentrations of NIC-1 and control drug N-(2-chloro-4-nitrophenyl)-5-chloro-2-hydroxybenzamide, followed by culture in an incubator at 37° C. for 24 h, 48 h and 72 h respectively; CCK8 was measured by adding CCK8 to each well at an amount of 10 μl/well, culturing for 2-3 h and detecting a value of OD at 450 nm using a microplate reader.
Experimental results: the outcomes of the synthesized compound NIC-1 of the present invention and the control drug N-(2-chloro-4-nitrophenyl)-5-chloro-2-hydroxybenzamide in the six concentrations were compared with those of the blank control, respectively. […]

[1] = Solubility in solvents (experimental results); format: physicochemical
Description: The molecular weight is 367.9967.

[2] = tested on: small cell lung cancer cell line H446; assay: H446 cell colony in vitro formation assay (crystal violet staining); format: cell-based; settings: Day 7 (one week)
Description: Test cell line: small cell lung cancer cell line H446 (purchased from Shanghai Beinuo Life Science Co., Ltd.) Experimental method: H446 cell colony in vitro formation assay
Detection method: crystal violet staining
On Day 1, a 6-well plate (Transwell, batch No. 3428, manufactured by Corning Incorporated) was adopted as cell plate, with 2000 cells/well per plate.
On Day 2, after microscopic observation of cell adherence, a 1 ml medium containing the drug was loaded to each well, with settings of 2 wells in one group and totally three groups: A. 6 μmol/L, a. 6 μmol/L (multiple wells); B. blank (no drug); b. blank (no drug, multiple wells); C. 12 μmol/L; c. 12 μmol/L (multiple wells); the drugs were changed every three days, and the observation was performed every day.
On Day 7, cell colonies were visually observed at the bottom of the vessel, and the cells were collected by: discarding the culture medium in each well, washing cells with phosphate buffered saline (PBS) twice for 5 minutes each time, adding 500 μl crystal violet stain solution to each well for staining at room temperature for 15 minutes, washing cells with PBS twice for 5 minutes each time, and finally detecting on a WB analyzer.

[3] = tested on: small cell lung cancer cell line H446; assay: Cell viability CCK-8 assay, H446; format: cell-based; settings: 48 h after dosing
Description: Test cell line: small cell lung cancer cell line H446 (purchased from Shanghai Beinuo Life Science Co., Ltd.)
Cell viability CCK-8 assay: CCK8 assay, with a reagent containing 2-(2-methoxy-4-nitrophenyl)-3-(4-nitrophenyl)-5-(2,4-disulfophenyl)-2H-tetrazole monosodium salt (WST-8), is reduced by dehydrogenase in the cells in the presence of electron carrier 1-methoxy-5-methylphenazinium […] (1-Methoxy PMS), to obtain a highly water-soluble yellow formazan product (Formazan), and the count of viable cells is positively associated with the amount of obtained formazan product. Thus, CCK8 assay can be directly used for the evaluation of cell proliferation and toxicity analysis.
Each well of 96-well plate was loaded at an amount of 7×10^3 cells/well. After 24 h plating, 200 μl of solution was supplied to each well. NIC-1, vp-16 and blank were applied to the plate in four concentrations: concentration 1=1.528 μm, concentration 2=1.528 μm*2, concentration 3=1.528 μm*5, concentration 4=1.528 μm*10, wand each group was made in triplicate.
The plate was harvested 48 h after dosing, by:
discarding 200 μl solution in each well, adding 100 μl solution (90 μl medium+10 μl CCK8 stock solution) to each well, placing the plate in a 37° C. incubator for about 1 hour, and measuring a value of OD at 450 nm using a microplate reader.
The small cell lung cancer cell line H446 was treated with NIC-1 and etoposide (vp16) for […] respectively, and then the cell viability was detected by CCK-8 assay.
The synthesized compound NIC-1 of the present invention in the concentrations of 1.528 μM, 3.056 μM, 7.64 μM and 15.28 μM was compared with etoposide (vp16) and blank control, respectively. As shown in FIGS. 5-8, a chart of comparison of the inhibitory effect on the cell viability of small cell lung cancer cell line H446 was shown in each figure, wherein the horizontal axis represented the blank control, NIC-1, vp-16 and corresponding dosage concentrations, and the vertical axis represented measured OD values.

[4] = tested on: patients with relapsed SCLC; settings: cited from earlier work
[5] = oral, Day 1, 8 and 15 of 28 days

## O=C(Nc1ccc([N+](=O)[O-])cc1Cl)c1cc(Cl)ccc1O [N-(2-chloro-4-nitrophenyl)-5-chloro-2-hydroxybenzamide]
Human body
  side effects: occasional side effects manifested by fatigue, dizziness, chest tightness, gastrointestinal disorders, fever and itching

## CC(=O)Oc1ccc(Cl)cc1C(=O)Nc1ccc([N+](=O)[O-])cc1Cl [NIC-1, N-(2-chloro-4-nitrophenyl)-5-chloro-2-acetoxybenzamide]
Jurkat cell line
  inhibitory effect on cell viability of Jurkat cell line compared with control drug: superior to the control drug
[1]; dichloromethane
  solubility in dichloromethane: soluble
[1]; ethanol
  solubility in ethanol: slightly soluble
[1]; ether
  solubility in ether: slightly soluble
[1]; water
  solubility in water: insoluble
[2]; 6 μmol/L
  inhibition of growth of H446 cells (colony formation): partially inhibited
[2]; 12 μmol/L
  inhibition of growth of H446 cells (colony formation): completely inhibited
[3]; 1.528 μM
  inhibitory effect on cell viability of H446 compared with etoposide (vp16): slightly better than etoposide (vp16)
[3]; 3.06 μM
  inhibitory effect on cell viability of H446 compared with etoposide (vp16): significantly better than etoposide (vp16)
[3]; 7.64 μM
  inhibitory effect on cell viability of H446 compared with etoposide (vp16): significantly better than etoposide (vp16)
[3]; 15.28 μM
  inhibitory effect on cell viability of H446 compared with etoposide (vp16): significantly better than etoposide (vp16)

## CC[C@@]1(O)C(=O)OCc2c1cc1n(c2=O)Cc2cc3c(CN(C)C)c(O)ccc3nc2-1 [topotecan]
[4]; [5]
  dose at which dose-limiting toxicity (DLT) appeared: 4.5 mg/m^2
  maximum tolerated dose (MTD): 4 mg/m^2
[4]; weekly oral
  II degree thrombocytopenia: 16.7%
  II-III degree anemia: 33.3%
  II-III degree fever: 44.4%
  II-III degree neutropenia: 27.8%
  median progression-free survival (PFS): 2.3 months
  median survival (OS): 5.1 months

From patent US10464885B2, “Compound, preparation method therefor, applications thereof, corresponding targeted drug delivery system, chemotherapy drugs, and treatment method” (BEIJING XINDE RUNXING TECHNOLOGY CO., LTD., priority 2015, dated 2019)
